Laboratory results published in US20040132037A1, “Materials and methods for the induction of premature chromosone condensation” (priority 2004, published 2004).
Read-outs that look alike come from different tables or passages of the source.

Key:
[1] = system: human myeloid leukemic cell lines; settings: cited from earlier work
[2] = system: mitogen-stimulated HPBL; assay: PCC induction (PCC index) by OA in mitogen-stimulated HPBL; format: cell-based, human
Procedure: (§1) PCC spreads may be prepared according to standard cytogenetic procedures directly after the indicated treatment. Briefly, cells may be treated with a hypotonic potassium chloride (0.075 M) solution for 5 minutes and fixed in acetic: methanol (1:3) fixative. Fixed cells may be dropped onto acid cleaned glass slides.
(§2) To directly visualize the spread chromosomes, the slides may be stained. Suitable stains are known to those of skill in the art, for example, a 4% aqueous solution of Giemsa stain may be used for observation under a light microscope. Coded slides can be analyzed under 1000×magnification. Cells with condensed chromatin material displaying at least partial separation of chromosomes are scored as PCC spreads.
(§3) The PCC index may be determined as follows. [formula]
HPBLs prepared as described above may be incubated in cell culture medium supplemented with an energy source. In order to determine the optimal OA concentration and duration of incubation for PCC, phytohemagglutinin (PHA, 10 μg/ml; Murex Diagnostics) was subsequently added to the medium to stimulate proliferation.
(§4) The HPBL were treated with OA at concentrations ranging from 0.25 to 1 μM in a cell culture medium containing 100 μM ATP and incubated at 37° C. for varying durations of up to 24 hours. Slides were prepared and PCC index was determined as explained above.

[3] = system: unstimulated HPBL; assay: PCC induction (PCC index) in unstimulated HPBL; format: cell-based, human; settings: cell culture medium containing OA alone, no mitogen
Procedure: as §1, §2, §3, §4
In the following working example of the present invention, PCC induction in unstimulated HPBL was accomplished by the addition of p34^cdc2/cyclin B kinase to the complete media supplemented with ATP (100 μM) containing OA (0.75 μM) and incubation for three hours at 37° C. […]

## C=C1[C@@H](O)[C@@H]2O[C@]3(CC[C@H](/C=C/[C@@H](C)[C@@H]4CC(C)=C[C@@]5(O[C@H](C[C@@](C)(O)C(=O)O)CC[C@H]5O)O4)O3)CC[C@H]2O[C@@H]1[C@@H](O)C[C@H](C)[C@H]1O[C@@]2(CCCCO2)CC[C@H]1C [OA, okadaic acid]
[1]; higher PCC inducible concentrations (above 0.5 μM)
  phase of cell-cycle arrest: G1-S-phase
[1]; lower concentrations
  phase of cell-cycle arrest: G2-M phase
[2]; OA 0.25 μM, within 1 hour, p<0.01, Student's t-test
  PCC levels determined by PCC index compared with controls: significant
[2]; OA 0.75 μM
  cytostatic effect: not cytostatic
[2]; OA 1 μM, 8 hours, PHA 10 μg/ml, 100 μM ATP, 37° C.
  PCC index, maximum: 61%
[2]; prolonged treatment with higher concentrations of OA, possibly due to toxicity
  quality of PCC spreads: poor spread quality
[3]
  PCC induction: did not result in PCC induction
